Experimental data reported in PubChem BioAssay AID2745 (NMMLSC, 2010).
Where “and” joins values, the source holds several entries; their conditions need not be identical. Equal entries are not always repeated. Calls of active or inactive are those of the source. No rule for the calls is given here.

Test system: S. cerevisiae LAP4-GFP reporter, flow cytometry fluorescence
Assay: concentration series on yeast TOR reporter LAP4 – cell-based, MLPCN hits, flow cytometry, dose response (AID 2745);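 also: yeast exposed to compound for three hours at 30 degrees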
Details: not given

| Compound | EC50 |
| --- | --- |
| O=C(Oc1ccnc2cc(Cl)ccc12)N1CCCCCC1 | 12.1 µM |
| N/C(Cc1ccc(Cl)c(Cl)c1)=N\OC(=O)c1cccs1 | 5.04 µM |
| COC(=O)/C(=C/c1c[nH]c2ccccc12)[N+](=O)[O-] | 20.7 µM |
| CC1(C)C[C@H]2C=C(C=O)[C@]3(C=O)C[C@]3(C)[C@H]2C1 | 0.865 µM |
| O=C(Nc1nc(-c2ccccn2)cs1)c1cc2ccccc2o1 | 4.09 µM |
| Cc1cccc(C)c1NC(=O)C(Cl)C(=O)c1ccccc1 (stereo not drawn) | 1.45 µM |
| O=[N+]([O-])c1ccc(N=Nc2c(Cl)cc(O)cc2Cl)cc1 | 4.97 µM |
| N=C1S/C(=C\c2ccco2)C(=O)N1c1nccs1 | 4 µM |
| N/C(Cc1ccc(Cl)cc1)=N\OC(=O)c1cccc2ccccc12 | 1.88 µM |
| O=[N+]([O-])c1ccc(S(=O)(=O)c2cccc(C(F)(F)F)c2)nc1 | 21.5 µM |
| COc1ccc(/C=C/C(=O)C2C(=O)C=C(C)OC2=O)cc1O (stereo not drawn) | 11.7 µM |
| CNC(CC(=O)c1ccc([N+](=O)[O-])cc1)C(Cl)(Cl)Cl (stereo not drawn) | 1.34 µM |
| Cc1ccc(S(=O)(=O)ON2C(=O)c3ccccc3C2=O)c(C)c1 | 3.89 µM |
| C/C(=N/NC(=O)c1ccc(C(C)(C)C)cc1)c1ccccn1 | 32.7 µM |
| COc1ccc(/C=C2\C(=O)ON=C2c2ccccc2)cc1 | 6.86 µM |
| O=[N+]([O-])c1ccc(O)c(/C=N/Nc2ccccn2)c1 | 12.5 µM |
| CCc1sc(C(=O)Nc2nc(-c3ccccn3)cs2)cc1C | 3.94 µM |
| O=C1C=CC(=O)N1c1ccc(O)cc1 | 4.09 µM |
| CSC1=NS(=O)(=O)c2c(C)nn(C)c2S1 | 27.6 µM |
| Cc1ccc(C(=O)O)cc1N=Cc1cc(Br)cc(Br)c1O | 4.17 µM |
| CC(C)(C)n1nc(-c2ccc(F)cc2)c2c(N)ncnc21 | 3.51 µM |
| COc1cccc(N=Nc2ccc(O)c3ncccc23)c1 | 3.36 µM |
| CNc1nc(N)c([N+](=O)[O-])c(Nc2cccc(F)c2)n1 | 5.5 µM |
| COc1cccc2sc(Nc3nc(-c4ccccn4)cs3)nc12 | 1.36 µM |

| Compound | EC50 |
| --- | --- |
| Oc1c(I)cc(I)c2cccnc12 | 0.7 µM |
| O=c1cc(CSc2ccc(Cl)cc2)nc(-c2ccccn2)[nH]1 | 6.28 µM |
| COc1ccccc1OCCCc1c(C)n[nH]c1C | 20.1 µM |
| O=C(/C=C/c1ccc(F)cc1)NC(=S)NNC(=O)c1cnccn1 | 1.54 µM |
| O=C(Nc1nc(-c2ccccn2)cs1)C1COc2ccccc2O1 (stereo not drawn) | 3.9 µM |
| O=C(Oc1c(Cl)cc(Cl)c2cccnc12)c1ccco1 | 2.46 µM |
| CC(Oc1cccc(Cl)c1)C(=O)Nc1nc(-c2ccccn2)cs1 (stereo not drawn) | 25.1 µM |
| O=C1NC(=O)N(Cc2ccco2)C(=O)/C1=C/c1ccc(-c2cccc([N+](=O)[O-])c2)o1 | 6.36 µM |
| Cc1ccc(C(=O)Oc2oc(-c3ccco3)nc2C=Nc2ccc(Cl)cc2)cc1 | 3.6 µM |
| CC1=C/C(=N\OS(=O)(=O)c2ccccc2)C(C(C)C)=CC1=O | 5.16 µM |
| Cn1ncc(S(=O)(=O)Cc2ccccc2)c(Cl)c1=O | 4.01 µM |
| O=c1oc2cc(Oc3c([N+](=O)[O-])cc(C(F)(F)F)cc3[N+](=O)[O-])ccc2c2c1CCCC2 | 3.04 µM |
| O=C1C=CC(=O)N1c1cccc(-c2ccccc2)c1 | 0.385 µM |
| COc1ccc(N2CCN(C(=O)c3ccc(Br)cc3)CC2)c([N+](=O)[O-])c1 | 11.4 µM |
| COc1ccc(C2=CC(=O)N(Nc3ccccc3)C2=O)cc1 | 9.78 µM |
| CCOC(=O)/C(=C\c1cn(C)c2ccccc12)[N+](=O)[O-] | 2.24 µM |
| CN1CCN(C(=O)c2cc(COc3c(F)cccc3F)on2)CC1c1ccccc1 (stereo not drawn) | 6.66 µM |
| CCCOc1ccc(C(=O)NNC(=S)NC(=O)CC)cc1 | 11.5 µM |
| O=C1NC(=O)N(c2ccccc2)C(=O)/C1=C/c1ccc(Sc2ccccc2)o1 | 11.2 µM |
| Cc1cc(C2CCCCC2)n(O)c(=O)c1 | 5.33 µM |
| O=C(Nc1ccccc1)c1nnsc1S(=O)(=O)c1ccc(Cl)cc1 | 0.564 µM |
| Cc1cc(C)c(S(=O)(=O)ON2C(=O)c3ccccc3C2=O)cc1C | 3.12 µM |
| Cc1ccsc1/C=C1\C(=O)NC(=S)N(C)C1=O | 0.327 µM |
| O=C(/C=C/c1ccccn1)c1cc(Br)ccc1O | 4.09 µM |

| Compound | EC50 |
| --- | --- |
| Cc1ccc(/C=C2\C(=O)NC(=S)N(c3ccc(F)cc3)C2=O)s1 | 1.15 µM |
| COc1ccc(N2C(=O)/C(=C/c3cccs3)C(=O)NC2=S)cc1 | 1.32 µM |
| O=c1/c(=C/c2cccc3ccccc23)sc2ncnn12 | 9.22 µM |
| CC(=O)SC(C[N+](=O)[O-])c1cn(C(C)=O)c2ccccc12 (stereo not drawn) | 10.7 µM |
| Cc1ccc(C2=NOC(=O)/C2=C\c2ccc(C)o2)cc1 | 4.47 µM |
| CCn1c(=O)c(C(=O)Nc2nc3ccccc3[nH]2)c(O)c2ccccc21 | 0.45 µM |
| CC1=CC(=O)C(C(C)C)=C/C1=N/OS(=O)(=O)c1ccccc1 | 9.59 µM |
| Cc1[nH]c(-c2ccccn2)nc(=S)c1Cl | 4.58 µM |
| Cc1ccc(S(=O)(=O)c2ccc([N+](=O)[O-])cn2)cc1 | 14.9 µM |
| CC1=NNC(=O)/C1=C\c1cn(-c2ccccc2)nc1-c1cccs1 | 1.32 µM |
| CC1=NNC(=O)/C1=C\c1cn(-c2ccccc2)nc1-c1ccccc1 | 7.23 µM |
| O=C(Nc1ccc(Cl)cc1)ON=C1CCCC1 | 3.95 µM |
| COc1cc(SSc2cc(OC)cc([N+](=O)[O-])c2N)c(N)c([N+](=O)[O-])c1 | 8.26 µM |
| O=C1NC(=O)N(Cc2ccc(F)cc2)C(=O)/C1=C/c1cccs1 | 3.41 µM |
| CC(Oc1ccc(Cl)cc1)C(=O)NNC(=S)NC(=O)c1ccco1 (stereo not drawn) | 7.2 µM |
| COc1cc(/C=C2\C(=O)N(CCC#N)N=C2C)c(Br)cc1OC(C)C | 4.16 µM |
| CCN1/C(=C/C(C)=C/c2sc3ccccc3[n+]2CC)Sc2ccccc21 | 4.21 µM |
| CCCCS(=O)(=O)/C=C\C=C/S(=O)(=O)CCCC | 2.54 µM |
| O=C(NC(=S)NNC(=O)c1cnccn1)c1ccc(F)cc1 | 7.94 µM |
| O=[N+]([O-])c1ccc(O)c2ncccc12 | 0.607 µM and 0.752 µM |
| Cc1cc(C(=O)COC(=O)c2ccc[nH]c2=O)c(C)n1-c1ccccc1F | 0.863 µM |
| COc1ccc(/C=C/C(=O)NC(=S)NNC(=O)c2cnccn2)cc1 | 1.31 µM |
| N#Cc1nccnc1S(=O)(=O)c1cccs1 | 14 µM |
| O=C1NC(=O)C(=Cc2ccc(-c3ccc(Cl)cc3)o2)C(=O)N1 | 1.41 µM |

| Compound | EC50 |
| --- | --- |
| Oc1c(I)cc(Cl)c2cccnc12 | 0.986 µM |
| CCc1cc(C(=O)Nc2nc(-c3ccccn3)cs2)sc1C | 5.96 µM |
| O=C(Nc1ccc(Cl)cc1Cl)c1cccc(N2C(=O)C=CC2=O)c1 | 3.92 µM |
| O=C(NC(=S)NNC(=O)c1cnccn1)c1ccc(Cl)cc1 | 1.75 µM |
| CCCOc1ccc(C(=O)NNC(=S)NC(=O)c2ccco2)cc1 | 13.3 µM |
| O=C1C=CC(=O)N1c1ccc(N2CCCCC2)cc1 | 1.24 µM |
| O=S1(=O)C=C(Sc2nc3ccccc3s2)c2ccccc21 | 3.29 µM |
| CC(Oc1ccc(Br)cc1)C(=O)Nc1nc(-c2ccccn2)cs1 (stereo not drawn) | 4 µM |
| O=[N+]([O-])c1cc(F)c2cccnc2c1O | 1.19 µM |
| Cc1c(C(=O)Nc2nc(-c3ccccn3)cs2)oc2ccccc12 | 4.01 µM |
| Cc1ccc(N/N=C(\C#N)C(N)=S)c(C)c1 | 11.7 µM |
| CCc1ccc2c(c1)/C(=C/C(=O)c1cccs1)C(=O)N2 | 4.07 µM |
| Cc1ccsc1/C=N/Nc1ncc(Cl)cc1Cl | 6.19 µM |
| CC(C)(C)C(=O)C(Cl)C(=O)Nc1ccccc1 (stereo not drawn) | 14.6 µM |
| O=C(COc1ccc(F)cc1Cl)Nc1nc(-c2ccccn2)cs1 | 2.98 µM |
| Cc1cc(O)c(C(=O)/C=C/c2ccc(Cl)cc2)c(=O)o1 | 6.38 µM |
| CCOc1ccc(N2C(=O)/C(=C\c3cccs3)C(=O)NC2=S)cc1 | 1.96 µM |
| CCOC(=O)CSC1=NC(=O)/C(=C\c2ccc(Cl)cc2)S1 | 27 µM |
| Cc1cccc2c1NC(=O)/C2=C\C(=O)c1cccs1 | 5.59 µM |
| Cc1cc(C(=O)Nc2nc(-c3ccccn3)cs2)ccc1[N+](=O)[O-] | 6.15 µM |
| Cc1ccc(S(=O)(=O)c2ncccc2[N+](=O)[O-])cc1 | 14.6 µM |
| CCCCCCCCC/C(=N\O)c1ccccn1 | 6.13 µM |
| CC(=O)c1ccc(N2CCN(C(=O)c3ccc(Br)cc3)CC2)c(F)c1 | 9.91 µM |

Test system: not listed separately
Assay: as above
Details: S. cerevisiae LAP4-GFP reporter, flow cytometry fluorescence; at 33 µM (top of the series)

| Compound | LAP4-GFP fluorescence (kMESF) |
| --- | --- |
| COc1ccc(N2C(=O)C(Cl)=C(NCc3ccccc3)C2=O)cc1 | 6.61 kMESF (inactive) |
| Oc1c(C(Nc2cccc(C(F)(F)F)c2)c2ccncc2)ccc2cccnc12 (stereo not drawn) | 11.8 kMESF (inactive) |
| N/C(=N\OC(=O)c1cccc(Br)c1)c1ccccc1 | 4.51 kMESF (inactive) |
| C#CCOCCOCCOCCNc1nc(N2CCN(C(=O)CCCCCCCCCCNC(=O)[C@H](CCCCN)n3cc(C)nn3)CC2)nc(N2CCN(C(=O)CCCCCCCCCCNC(=O)[C@H](CCCN=C(N)N)n3cc(C[C@@H](C)CC)nn3)CC2)n1 | 6.77 kMESF (inactive) |
| C=CCN1C(=O)/C(=C/c2cccs2)C(=O)NC1=S | 4.47 kMESF (inactive) |
| CC(=O)NN1C(=O)/C(=C/c2ccc(Br)o2)SC1=S | 2.52 kMESF (inactive) |
| O=C(CS(=O)c1ccccc1[N+](=O)[O-])Oc1ccc(Br)cc1 (stereo not drawn) | 21.8 kMESF (inactive) |
| CCOc1cc(C=C2C(=O)c3ccccc3C2=O)ccc1OCC(=O)Nc1ccc(C)cc1 | 3.87 kMESF (inactive) |
| Cc1ccc(N2C(=O)C(Cl)=C(Nc3c(C)n(C)n(-c4ccccc4)c3=O)C2=O)cc1 | 2.87 kMESF (inactive) |
| CCc1ccc(C(=O)/C=C/c2ccc([N+](=O)[O-])o2)cc1 | 10.5 kMESF (inactive) |
| C[C@@]12C(=O)OC(=O)[C@]1(C)C1CCC2O1 | 9.15 kMESF (inactive) |
| CN(O)/C=c1/ccc2c(n1)C(=O)C=CC=2 | 17.5 kMESF (inactive) |
| O=C(OCC(=O)N1CCN(C(=O)c2ccco2)CC1)c1cc(-c2ccc(F)cc2)nc2ccccc12 | 9.57 kMESF (inactive) and 4.75 kMESF (inactive) |
| CC(=O)Oc1oc(-c2ccccc2)nc1C=Nc1ccccc1 | 8.16 kMESF (inactive) |
| Cc1ccc(S(=O)(=O)Cc2cc(F)c([N+](=O)[O-])cc2[N+](=O)[O-])cc1 | 1.59 kMESF (inactive) |
| COc1cccc(N=Cc2nc(-c3ccccc3)oc2OC(C)=O)c1 | 12.8 kMESF (inactive) |
| Cc1ccc2[nH]cc(/C=C/c3cc[n+](C)cc3)c2c1 | 5.34 kMESF (inactive) |
| O=C1C(=O)c2ccccc2-c2ccccc21 | 5.27 kMESF (inactive) |
